Experimental data as given in publication PMC3135573 (Analytical biochemistry, 2011).
Read-outs that look alike come from different tables or passages of the source. Marks after values point to notes of the source that are not given here.

Experiments:
[1] = target: T1, BioA (Mycobacterium tuberculosis, UniProt P9WQ81); format: biochemical
[2] = target: T1, BioA; details: biodisc assay ref 37; cited from earlier work
[3] = target: T1, BioA; details: cited from earlier work

T1 sequence (P9WQ81 whole entry, looked up): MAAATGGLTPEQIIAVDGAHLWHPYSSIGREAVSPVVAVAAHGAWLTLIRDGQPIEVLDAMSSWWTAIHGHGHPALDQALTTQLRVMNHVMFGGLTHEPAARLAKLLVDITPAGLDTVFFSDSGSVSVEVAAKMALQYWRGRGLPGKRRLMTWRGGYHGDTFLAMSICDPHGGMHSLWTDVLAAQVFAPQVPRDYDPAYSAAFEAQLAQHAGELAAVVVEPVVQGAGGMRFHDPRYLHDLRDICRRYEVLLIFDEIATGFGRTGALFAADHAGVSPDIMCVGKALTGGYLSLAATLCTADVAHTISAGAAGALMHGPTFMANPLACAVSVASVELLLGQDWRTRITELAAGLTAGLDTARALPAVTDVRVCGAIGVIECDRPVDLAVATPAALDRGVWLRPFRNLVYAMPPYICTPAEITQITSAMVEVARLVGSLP

For O[C@@H](CS)[C@@H](O)CS (racemic) [DTT, dithiothreitol], the “decrease of the initial velocity” value ([1]; addition of 2 mM DTT) was 18%.

For C[S+](CC[C@H](N)C(=O)[O-])C[C@H]1O[C@@H](n2cnc3c(N)ncnc32)[C@H](O)[C@@H]1O (stereo partly drawn) [SAM, S-adenosyl methionine], the KmSAM [2] is given as 1.4 ± 0.3 ^a mM and the KmSAM ([1]; this study, 50 nM BioA, 12.5 μM KAPA, SAM 0.12–15 mM) is given as 1.17 ± 0.06 mM.

In the case of C[C@@H](N)C(=O)CCCCCC(=O)O [(R)-KAPA], the “inhibition of BioA (in words)” value [3] is listed as “potent inhibitor of BioA”.

In the case of C[C@H](N)C(=O)CCCCCC(=O)O.Cl [KAPA, (S)-8-Amino-7-oxononanoic acid hydrochloride salt], the KmKAPA [2] is given as 1.3 ± 0.3 ^a μM and the KmKAPA ([1]; this study, 50 nM BioA, 5 mM SAM, KAPA 0–12.5 μM) is given as 1.9 ± 0.1 µM.
